Assays:
[1] = target: T1, Transient receptor potential cation channel subfamily V member 1 (Rattus norvegicus, UniProt O35433); assay: Agonist activity by [Ca2+] uptake in CHO cells expressing rat TRPV1 at 10-30 uM; WE = Weakly effective; format: functional, cell-based
[2] = target: T1, Transient receptor potential cation channel subfamily V member 1; assay: Antagonist activity for rat TRPV1 expressed in CHO cells; Weakly effective; format: functional, cell-based
[3] = target: T1, Transient receptor potential cation channel subfamily V member 1; assay: In vitro binding affinity for rat TRPV1 expressed in CHO cells using [3H]-RTX; format: cell-based
[4] = target: T1, Transient receptor potential cation channel subfamily V member 1; assay: Antagonist activity for rat TRPV1 expressed in CHO cells; format: functional, cell-based
[5] = target: T1, Transient receptor potential cation channel subfamily V member 1; assay: Agonist activity by 300 nM capsaicin induced [Ca2+] uptake in CHO cells expressing rat TRPV1 at 10-30 uM; NE = Not effective; format: functional, cell-based
[6] = target: T1, Transient receptor potential cation channel subfamily V member 1; assay: Agonist activity by 300 nM capsaicin induced [Ca2+] uptake in CHO cells expressing rat TRPV1 at 10-30 uM; WE = Weakly effective; format: functional, cell-based
[7] = target: T1, Transient receptor potential cation channel subfamily V member 1; assay: Agonist activity by [Ca2+] uptake in CHO cells expressing rat TRPV1 at 10-30 uM; NE = Not effective; format: functional, cell-based
[8] = target: T1, Transient receptor potential cation channel subfamily V member 1; assay: Antagonist activity for rat TRPV1 expressed in CHO cells; Not effective; format: functional, cell-based
[9] = target: T1, Transient receptor potential cation channel subfamily V member 1; assay: Agonist activity by [Ca2+] uptake in CHO cells expressing rat TRPV1 at 10-30 uM; format: functional, cell-based
[10] = target: T1, Transient receptor potential cation channel subfamily V member 1; assay: In vitro binding affinity for rat TRPV1 expressed in CHO cells using [3H]RTX; Not effective; format: cell-based

T1 sequence (O35433 whole entry): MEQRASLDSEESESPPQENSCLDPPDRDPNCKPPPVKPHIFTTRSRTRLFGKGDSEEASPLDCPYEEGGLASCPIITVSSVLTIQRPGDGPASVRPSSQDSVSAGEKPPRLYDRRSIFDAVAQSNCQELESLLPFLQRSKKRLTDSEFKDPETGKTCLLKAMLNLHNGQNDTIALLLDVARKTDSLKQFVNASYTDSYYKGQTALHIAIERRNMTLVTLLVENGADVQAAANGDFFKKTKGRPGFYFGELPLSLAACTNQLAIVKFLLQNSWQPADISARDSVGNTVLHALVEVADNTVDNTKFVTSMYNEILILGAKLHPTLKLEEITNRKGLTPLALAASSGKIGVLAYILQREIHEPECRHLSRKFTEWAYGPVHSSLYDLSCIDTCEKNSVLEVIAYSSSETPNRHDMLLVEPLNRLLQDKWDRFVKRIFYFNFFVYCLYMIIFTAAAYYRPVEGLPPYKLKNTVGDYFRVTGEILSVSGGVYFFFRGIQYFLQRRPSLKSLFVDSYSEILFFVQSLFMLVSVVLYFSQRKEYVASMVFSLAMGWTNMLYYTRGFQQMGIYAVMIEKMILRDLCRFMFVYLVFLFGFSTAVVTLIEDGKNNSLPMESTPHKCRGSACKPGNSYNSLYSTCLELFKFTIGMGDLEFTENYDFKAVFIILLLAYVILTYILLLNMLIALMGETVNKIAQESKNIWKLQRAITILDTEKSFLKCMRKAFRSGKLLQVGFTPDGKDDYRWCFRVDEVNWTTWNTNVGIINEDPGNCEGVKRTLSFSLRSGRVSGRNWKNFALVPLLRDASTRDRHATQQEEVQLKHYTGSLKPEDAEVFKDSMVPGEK

Row | SMILES | Ki [3] | Ki [4] | EC50 ([7]; cho) | Ki [8] | other results
1 | CC(C)(C)c1ccc(C/N=C(\S)NCc2ccc(NS(N)(=O)=O)cc2)cc1 | 0.65 µM | – | – | – | EC50 [1]: Partial agonist; Ki [2]: Partial antagonist
2 | CC(C)(C)c1ccc(C/N=C(\S)NCc2ccc(NS(=O)(=O)CCN=[N+]=[N-])cc2)cc1 | 0.145 µM | 0.231 µM | – | – | EC50 [5]: Not Active
3 | CC(C)(C)c1ccc(C/N=C(\S)NCc2ccc(NS(C)(=O)=O)c(O)c2)cc1 | 0.75 µM | – | – | – | EC50 [1]: Partial agonist; Ki [2]: Partial antagonist
4 | CSc1cccc(C/N=C(\S)NCc2ccc(C(C)(C)C)cc2)c1 | 0.58 µM | – | – | Not Active | EC50 ([6]; cho): Partial agonist
5 | CC(C)(C)c1ccc(C/N=C(\S)NCc2ccc(CNS(C)(=O)=O)cc2)cc1 | – | – | – | Not Active | EC50 [9]: 1.72 µM
6 | CC(C)(C)c1ccc(C/N=C(\S)NCc2ccc(NS(C)(=O)=O)c(S(C)(=O)=O)c2)cc1 | – | – | Not Active | Not Active | Ki [10]: Not Active
7 | CC(C)(C)c1ccc(C/N=C(\S)NCc2ccc(NS(C)(=O)=O)c([N+](=O)[O-])c2)cc1 | 1.3 µM | 0.61 µM | Not Active | – | –
8 | CC(C)Oc1cc(C/N=C(\S)NCc2ccc(C(C)(C)C)cc2)ccc1NS(C)(=O)=O | 8.07 µM | 3.6 µM | Not Active | – | –
9 | CC(C)(C)c1ccc(CNC(=S)NCc2ccc(NS(C)(=O)=O)cc2)cc1 | – | – | Not Active | – | –
10 | COc1cc(CNC(=S)NCc2ccc(C(C)(C)C)cc2)ccc1NS(C)(=O)=O | – | – | – | – | EC50 ([6]; cho): Partial agonist
11 | CC(C)(C)c1ccc(C/N=C(\S)NCc2cccc(S(C)(=O)=O)c2)cc1 | 1 µM | – | – | Not Active | EC50 ([6]; read-out: EC50): 1.01 µM
12 | CC(C)(C)c1ccc(C/N=C(\S)NCc2ccc(NS(=O)(=O)CCN)cc2)cc1 | 4.64 µM | – | Not Active | – | Ki [2]: Partial antagonist
13 | CC(C)(C)c1ccc(CNC(=S)NCc2ccc(NS(C)(=O)=O)c(F)c2)cc1 | – | – | Not Active | – | –
14 | C[S+]([O-])c1cccc(C/N=C(\S)NCc2ccc(C(C)(C)C)cc2)c1 (stereo not drawn) | 3.6 µM | – | – | Not Active | EC50 ([7]; read-out: EC50): 1.89 µM
15 | C=CS(=O)(=O)Nc1ccc(CN/C(S)=N/Cc2ccc(C(C)(C)C)cc2)cc1 | 0.231 µM | – | – | Not Active | EC50 [9]: 0.25 µM
16 | Oc1cc2c(cc1O)CN(C(=S)NCCc1ccc(Cl)cc1)CCC2 [CAPSAZEPINE] | – | – | Not Active | – | –

Further lines, with some results ahead:

Row | Ki [3] | Ki [4] | EC50 ([7]; cho) | Ki [8] | SMILES | other results
17 | 3.9 µM | 0.699 µM | – | – | CC(C)(C)c1ccc(C/N=C(\S)NCCc2ccc(NS(C)(=O)=O)cc2)cc1 | EC50 ([6]; cho): Partial agonist
18 | – | 4.1 µM | Not Active | – | CC(C)(C)c1ccc(C/N=C(\S)NCc2ccc(NS(C)(=O)=O)cn2)cc1 | –
19 | 6 µM | – | – | Not Active | CC(C)(C)c1ccc(C/N=C(\S)NCc2cccc(NS(C)(=O)=O)c2)cc1 | EC50 ([7]; read-out: EC50): 4.1 µM
20 | 9.56 µM | 6.8 µM | – | – | CC(C)(C)c1ccc(C/N=C(\S)Nc2ccc(NS(C)(=O)=O)cc2)cc1 | EC50 [1]: Partial agonist
21 | 0.144 µM | 0.0455 µM | Not Active | – | CC(C)(C)c1ccc(C/N=C(\S)NCc2ccc(NS(C)(=O)=O)cc2Cl)cc1 | –
22 | 1.16 µM | 0.4 µM | – | – | CC(C)(C)c1ccc(C/N=C(\S)NCc2ccc(NS(C)(=O)=O)c(Cl)c2)cc1 | EC50 [5]: Not Active
23 | 0.215 µM | 0.0273 µM | Not Active | – | CC(C)(C)c1ccc(C/N=C(\S)NCc2ccc(NS(C)(=O)=O)cc2F)cc1 | –
24 | 0.44 µM | 0.119 µM | Not Active | – | CC(C)(C)c1ccc(C/N=C(\S)NCc2ccc(NS(C)(=O)=O)cc2C(F)(F)F)cc1 | –
25 | – | – | Not Active | Not Active | CC(C)(C)c1ccc(C/N=C(\S)NCc2cnc(NS(C)(=O)=O)cn2)cc1 | Ki [10]: Not Active
26 | 4.1 µM | 0.177 µM | Not Active | – | CC(C)(C)c1ccc(C/N=C(\S)NCc2ccc(NS(C)(=O)=O)nc2)cc1 | –
